Experimental data from US9115126B2, “1H-[1,2,3]triazolo[4,5-c]pyridine-4-carbonitrile derivatives” (Merck Sharp & Dohme B.V., priority 2010, dated 2015).
Where a name gives a salt, the structure may show the parent alone. Read-outs that look alike come from different tables or passages of the source.

Experiments:
[1] = Rat oral bioavailability; conditions: Sprague-Dawley, in vivo, SD rat, read-out: Bioavailability F
[2] = target: recombinant human Cathepsin S (Homo sapiens (Human), UniProt P25774); experiment: Cathepsin S assay procedure (fluorogenic substrate Z-Val-Val-Arg-AMC); format: biochemical
recombinant human Cathepsin S, sequence (P25774 115-331): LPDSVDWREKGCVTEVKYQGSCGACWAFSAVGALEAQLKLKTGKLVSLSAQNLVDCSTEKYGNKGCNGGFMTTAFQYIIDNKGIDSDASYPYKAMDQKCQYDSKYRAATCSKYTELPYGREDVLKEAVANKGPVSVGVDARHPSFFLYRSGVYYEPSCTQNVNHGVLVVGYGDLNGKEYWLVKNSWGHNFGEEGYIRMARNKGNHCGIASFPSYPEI
Procedure: 25 μl of a 2 mg/l solution of activated recombinant human cathepsin S, in assay buffer, is then added to the well, yielding a final inhibitor concentration of 10 μM.
Enzyme activity is determined by measuring the fluorescence of the liberated aminomethylcoumarin at […] using 390 nm excitation, at 20 minutes. Percentage enzyme activity is calculated by comparison of this activity to that of a solution containing no inhibitor.

[3] = test system: Human B lymphoblastoid cells (Jiyoye); experiment: Cell based Lip10 assay (lip10 accumulation, anti-CD74 ELISA); conditions: 24 hours, relative to E64d/LHVS-treated cells, read-out: pEC50 (negative logarithm of the EC50 concentration), lip10 assay (converted)
Procedure: Human B lymphoblastoid cells (Jiyoye) were cultured in RPMI 1640 medium at a density of 500 000 cells/ml in 24-well plates. Cells were treated with a concentration range of compounds (0.001-10 μM) and vehicle alone (DMSO, 0.1% v/v). In order to generate positive control treatments separate wells were treated with 10 μM E64d & 0.1 μM LHVS. The cells were incubated at 37° C. in a humidified incubator containing 5% CO2. After 24 hours the plates were centrifuged at 150×g for five minutes and the media removed. Cells were lysed by adding 65 ul of ice-cold phosphate buffered saline (PBS) containing 1% (v/v) Triton X-100 and protease inhibitors and incubated on ice for 20 minutes. The samples were centrifuged at 18 000×g for 15 minutes at 4° C. and the resulting supernatants collected and stored at −80° C. until required. After measurement of protein concentration using a micro-BCA protein assay all samples were diluted to […] and 50 l of each sample were coated overnight at 4° C. onto wells of high protein-binding 96-well plates. The wells were washed once with PBS (200 l/well) and then incubated at room temperature for 2 hours with 10 μg/ml mouse anti-CD74 Pin.1 monoclonal antibody (50 l/well) in PBS containing 0.05% (v/v) Tween-20 (PBS-T) and 2% (w/v) BSA (PBS-T/BSA). Unbound antibody was then removed by washing three times with PBS-T and followed by the addition of rabbit anti-mouse IgG antibody conjugated to horseradish peroxidase. After washing five times with PBS-T 100 μl of tetramethylbenzidine substrate was added to each well and incubated for 10 minutes on a plate shaker. The reaction was stopped by the addition of 100 μl of 1M hydrochloric acid. Antibody binding was quantified by measuring the optical density (OD, 450 nm) using a Molecular Devices Spectramax Plus. The OD of vehicle-only treated cells was removed from all values and the data was expressed as a percentage of the OD generated from the mean E64d/LHVS-treated cells. The potency of compounds (EC50) was measured by calculating the concentration of inhibitor required to generate 50% inhibition relative to E64d/LHVS-treated cells.

[4] = pH5.5, fluorescence at 20 minutes, read-out: Cat S activity IC50
[5] = read-out: pIC50 (negative logarithm of the IC50 concentration) for inhibition of human cathepsin S (converted)

SMILES	IC50 [2, 4] [nM]	IC50 [2, 5] [nM]	other results
CN(C)C(=O)CN1CCC(CCOc2ccc(-c3cc4c(ncn4C)c(C#N)n3)cc2C(F)(F)F)CC1.Cl [EP 09150709.5 - Example 14d, reference compound]	8.3	–	bioavailability [1]: 9%
CN(C)C(=O)CN1CCC(CCOc2ccc(-c3cc4c(nnn4C)c(C#N)n3)cc2C(F)(F)F)CC1.Cl [Example 2a, 6-(4-(2-(1-(2-dimethylamino-2-oxoethyl)piperidin-4-yl)ethoxy)-3-(trifluoromethyl)-phenyl)-1-methyl-1H-[1,2,3]triazolo[4,5-c]pyridine-4-carbonitrile hydrochloride]	1.5	< 10	bioavailability [1]: 42%; EC50 [3]: < 100 nM
Cn1nnc2c(C#N)nc(-c3ccc(OCCC4CCN(CC(C)(C)O)CC4)c(C(F)(F)F)c3)cc21 [Example 2d, 6-(4-(2-(1-(2-hydroxy-2-methylpropyl)piperidin-4-yl)ethoxy)-3-(trifluoromethyl)phenyl)-1-methyl-1H-[1,2,3]triazolo-[4,5-c]pyridine-4-carbonitrile hydrochloride]	–	< 10	EC50 [3]: < 100 nM
Cn1nnc2c(C#N)nc(-c3ccc(OCCC4CCN(Cc5ncco5)CC4)c(C(F)(F)F)c3)cc21 [Example 3a, 1-methyl-6-(4-(2-(1-(oxazol-2-ylmethyl)piperidin-4-yl)ethoxy)-3-(trifluoromethyl)phenyl)-1H-[1,2,3]triazolo[4,5-c]pyridine-4-carbonitrile]	–	< 10	EC50 [3]: < 100 nM
Cn1nnc2c(C#N)nc(-c3ccc(OCCCN4CCN(c5ccccn5)CC4)c(C(F)(F)F)c3)cc21 [Example 36w, 1-methyl-6-(4-(3-(4-(pyridin-2-yl)piperazin-1-yl)propoxy)-3-(trifluoromethyl)phenyl)-1H-[1,2,3]triazolo[4,5-c]pyridine-4-carbonitrile hydrochloride]	–	< 10	–
CN(CCCOc1ccc(-c2cc3c(nnn3C)c(C#N)n2)cc1C(F)(F)F)CC(=O)N(C)C [Example 36x, 2-((3-(4-(4-cyano-1-methyl-1H-[1,2,3]triazolo[4,5-c]pyridin-6-yl)-2-(trifluoro-methyl)phenoxy)propyl)(methyl)amino)-N,N-dimethylacetamide hydrochloride]	–	< 10	–
Cn1nnc2c(C#N)nc(-c3ccc(OCCN4CCN(CCO)CC4)c(C(F)(F)F)c3)cc21 [Example 37e, 6-(4-(2-(4-(2-hydroxyethyl)piperazin-1-yl)ethoxy)-3-(trifluoromethyl)phenyl)-1-methyl-1H-[1,2,3]triazolo[4,5-c]pyridine-4-carbonitrile]	–	< 10	–
CN(C)C(=O)CN1CCN(CCOc2ccc(-c3cc4c(nnn4C)c(C#N)n3)cc2C(F)(F)F)CC1 [Example 37g, 2-(4-(2-(4-(4-cyano-1-methyl-1H-[1,2,3]triazolo[4,5-c]pyridin-6-yl)-2-(trifluoromethyl)phenoxy)ethyl)piperazin-1-yl)-N,N-dimethylacetamide dihydrochloride]	–	–	EC50 [3]: < 100 nM
CN(CCOc1ccc(-c2cc3c(nnn3C)c(C#N)n2)cc1C(F)(F)F)CC(=O)N(C)C [Example 37m, 2-((2-(4-(4-cyano-1-methyl-1H-[1,2,3]triazolo[4,5-c]pyridin-6-yl)-2-(trifluoromethyl)phenoxy)ethyl)(methyl)amino)-N,N-dimethylacetamide]	–	< 10	–
Cn1nnc2c(C#N)nc(-c3ccc(OCCN4CCS(=O)(=O)CC4)c(C(F)(F)F)c3)cc21 [Example 37p, 1-methyl-6-(4-(2-(4-S,S-dioxothiomorpholin-1-yl)ethoxy)-3-(trifluoromethyl)phenyl)-1H-[1,2,3]triazolo[4,5-c]pyridine-4-carbonitrile]	–	< 10	–
Cn1nnc2c(C#N)nc(-c3ccc(OCCN4CCNC(C(F)(F)F)C4)c(C(F)(F)F)c3)cc21 (stereo not drawn) [Example 37q, 1-methyl-6-(3-(trifluoromethyl)-4-(2-(3-(trifluoromethyl)piperazin-1-yl)ethoxy)phenyl)-1H-[1,2,3]triazolo[4,5-c]pyridine-4-carbonitrile]	–	< 10	–
Cn1nnc2c(C#N)nc(-c3ccc(OCCN4CCNC(=O)C4)c(C(F)(F)F)c3)cc21 [Example 37r, 1-methyl-6-(4-(2-(3-oxopiperazin-1-yl)ethoxy)-3-(trifluoromethyl)phenyl)-1H-[1,2,3]triazolo[4,5-c]pyridine-4-carbonitrile]	–	< 10	–
COC(=O)[C@@H](O)CN1CCC(CCOc2ccc(-c3cc4c(nnn4C)c(C#N)n3)cc2C(F)(F)F)CC1 [Example 39, (S)-methyl 3-(4-(2-(4-(4-cyano-1-methyl-1H-[1,2,3]triazolo[4,5-c]pyridin-6-yl)-2-(trifluoromethyl)phenoxy)ethyl)piperidin-1-yl)-2-hydroxypropanoate]	–	< 10	–
CC(C)c1noc(COc2ccc(-c3cc4c(nnn4C)c(C#N)n3)cc2C(F)(F)F)n1 [Example 43, 6-(4-((3-isopropyl-1,2,4-oxadiazol-5-yl)methoxy)-3-(trifluoromethyl)phenyl)-1-methyl-1H-[1,2,3]triazolo[4,5-c]pyridine-4-carbonitrile]	–	< 10	–
Cn1nnc2c(C#N)nc(-c3ccc(CCCO)c(C(F)(F)F)c3)cc21 [Example 44, 6-(4-(3-hydroxypropyl)-3-(trifluoromethyl)phenyl)-1-methyl-1H-[1,2,3]triazolo[4,5-c]pyridine-4-carbonitrile]	13	–	–
CN(C)CCCOc1ccc(-c2cc3c(ncn3C)c(C#N)n2)cc1C(F)(F)F [WO 2009/010491 - Example 2a, reference compound]	32	–	–
Cn1cnc2c(C#N)nc(-c3ccc(OCCC4CCNCC4)c(C(F)(F)F)c3)cc21 [WO 2009/010491, Example 14a, reference compound]	8	–	–
Cn1cnc2c(C#N)nc(-c3ccc(CCCO)c(C(F)(F)F)c3)cc21 [WO 2009/010491, Example 15, reference compound]	234	–	–
